One cell line from the supplement of paper PMC10307832 can be followed below.

Holding throughout (assay): relative viability (nuclei count vs DMSO), 5 days (fraction); higher = more cells survive
Compound in the experiment “BI-D1870 + Alpelisib”: CC(C)CCN1c2nc(Nc3cc(F)c(O)c(F)c3)ncc2N(C)C(=O)C1C [BI-D1870] + Cc1nc(NC(=O)N2CCC[C@H]2C(N)=O)sc1-c1ccnc(C(C)(C)C(F)(F)F)c1 [Alpelisib] (partner 2 µM)
The method in brief: (§1)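 Dosing by pin tool came one day after lung cancer cell lines were seeded in 1536-well plates, using either one drug or a fixed anchor-drug dose plus five library-drug doses (not always all listed) in √10 steps. After 5 days, nuclei were counted on 4× images. Relative viability is treated-well nuclei count divided by vehicle-well nuclei count, and values are medians of duplicate plates.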

Compound in the experiment “BI-D1870 + Decitabine”: CC(C)CCN1c2nc(Nc3cc(F)c(O)c(F)c3)ncc2N(C)C(=O)C1C [BI-D1870] + Nc1ncn([C@H]2C[C@H](O)[C@@H](CO)O2)c(=O)n1 [Decitabine] (partner 2 µM)
In short, it runs like this: as §1

Compound in the experiment “Zebularine + Lapatinib”: O=c1ncccn1[C@@H]1O[C@H](CO)[C@@H](O)[C@H]1O [Zebularine] + CS(=O)(=O)CCNCc1ccc(-c2ccc3ncnc(Nc4ccc(OCc5cccc(F)c5)c(Cl)c4)c3c2)o1 [Lapatinib] (partner 2 µM)
In short, it runs like this:
as §1

Compound in the experiment “BI-D1870 + Vorinostat”: CC(C)CCN1c2nc(Nc3cc(F)c(O)c(F)c3)ncc2N(C)C(=O)C1C [BI-D1870] + O=C(CCCCCCC(=O)Nc1ccccc1)NO [Vorinostat] (partner 1 µM)
In short, it runs like this:
as §1

In the case of UMC-11, the relative viability with BI-D1870 + Alpelisib (first compound 0.04 µM) was 1.05; with BI-D1870 + Alpelisib (first compound 0.1265 µM), 0.935; in the experiment with BI-D1870 + Alpelisib (first compound 0.4 µM), 1; in the experiment with BI-D1870 + Alpelisib (first compound 1.265 µM), 1.05; with BI-D1870 + Alpelisib (first compound 4 µM), 1.02; with BI-D1870 + Decitabine (first compound 0.04 µM) it was 0.581. The relative viability in the experiment with BI-D1870 + Decitabine (first compound 0.1265 µM) is 0.466; with BI-D1870 + Decitabine (first compound 0.4 µM) it was 0.669; in the experiment with BI-D1870 + Decitabine (first compound 1.265 µM), 0.674; with BI-D1870 + Decitabine (first compound 4 µM), 0.622; with Zebularine + Lapatinib (first compound 1 µM), 1.28; in the experiment with Zebularine + Lapatinib (first compound 3.162 µM), 0.977. In addition, the relative viability with Zebularine + Lapatinib (first compound 10 µM) was found to be 0.614; with Zebularine + Lapatinib (first compound 31.62 µM), 0.849; with Zebularine + Lapatinib (first compound 100 µM), 0.436; with BI-D1870 + Vorinostat (first compound 0.04 µM) it was 0.394; with BI-D1870 + Vorinostat (first compound 0.1265 µM), 0.377; with BI-D1870 + Vorinostat (first compound 0.4 µM) it was 0.337. Besides, the values for the relative viability with BI-D1870 + Vorinostat (first compound 1.265 µM) and with BI-D1870 + Vorinostat (first compound 4 µM) were 0.329 and 0.128, respectively.
